Converted amounts (≈) assume the structure as drawn. The source made the active and inactive calls. No cut-off for these calls is given here.
Assays:
Assay type in all cases: functional
Staphylococcus aureus [1] = assay: Antibacterial activity against Staphylococcus aureus ATCC 29737 after 24 hr by disk diffusion method; conditions: ATCC 29737, 24 h
Candida albicans [2] = assay: Antifungal activity against Candida albicans ATCC 10231 at 400 ug/ml after 24 hr by cup-plate agar method; conditions: for zone of inhibition at 400 µg/mL: ATCC 10231, 24 h, read-out: IZ
Staphylococcus aureus [3] = assay: Antibacterial activity against Staphylococcus aureus ATCC 29737 at 400 ug/ml after 24 hr by cup-plate agar method; conditions: for zone of inhibition at 400 µg/mL: ATCC 29737, 24 h, read-out: IZ
Escherichia coli [4] = assay: Antibacterial activity against Escherichia coli ATCC 35218 at 400 ug/ml after 24 hr by cup-plate agar method; conditions: for zone of inhibition at 400 µg/mL: ATCC 35218, 24 h, read-out: IZ
Escherichia coli [5] = assay: Antibacterial activity against Escherichia coli ATCC 35218 after 24 hr by disk diffusion method; conditions: ATCC 35218, 24 h
Candida albicans [6] = assay: Antifungal activity against Candida albicans ATCC 10231 after 24 hr by disk diffusion method; conditions: ATCC 10231, 24 h

Compound | MIC (Staphylococcus aureus [1]) [µg/mL] | zone of inhibition at 400 µg/mL (Candida albicans [2]) [mm] | zone of inhibition at 400 µg/mL (Staphylococcus aureus [3]) [mm] | zone of inhibition at 400 µg/mL (Escherichia coli [4]) [mm] | MIC (Escherichia coli [5]) [µg/mL] | MIC (Candida albicans [6]) [µg/mL] | inhibition zone (IZ) (Staphylococcus aureus [3]) | inhibition zone (IZ) (Escherichia coli [4]) | inhibition zone (IZ) (Candida albicans [2])
O=C(/C=C/c1ccccc1[N+](=O)[O-])c1ccc(C(=O)/C=C/c2ccccc2[N+](=O)[O-])cc1 | 100 (≈ 233 µM) | 15 | 15 | 21 | 100 (≈ 233 µM) | 100 (≈ 233 µM) |  |  | 
COc1ccc(/C=C/C(=O)c2ccc(C(=O)/C=C/c3ccc(OO)cc3)cc2)cc1 | 300 (≈ 749 µM) | 22 |  |  |  |  | inactive | inactive | 
O=C(/C=C/c1cccc(Cl)c1)c1ccc(C(=O)/C=C/c2cccc(Cl)c2)cc1 | 300 (≈ 737 µM) | 12 |  | 13 | 300 (≈ 737 µM) |  | inactive |  | 
O=C(/C=C/c1cccc([N+](=O)[O-])c1)c1ccc(C(=O)/C=C/c2cccc([N+](=O)[O-])c2)cc1 |  |  |  |  |  |  | inactive | inactive | inactive
GENTAMICIN |  |  |  |  |  |  | 23 mm | 24 mm | 
O=C(/C=C/c1ccccc1O)c1ccc(C(=O)/C=C/c2ccccc2O)cc1 |  |  | 13 | 30 | 50 (≈ 135 µM) | 100 (≈ 270 µM) |  |  | inactive
COc1ccccc1/C=C/C(=O)c1ccc(C(=O)/C=C/c2ccccc2OC)cc1 | 300 (≈ 753 µM) | 9 |  |  |  |  | inactive | inactive | 
O=C(/C=C/c1cccc(Br)c1)c1ccc(C(=O)/C=C/c2cccc(Br)c2)cc1 |  |  | 10 | 30 | 50 (≈ 101 µM) | 200 (≈ 403 µM) |  |  | inactive
COc1cccc(/C=C/C(=O)c2ccc(C(=O)/C=C/c3cccc(OC)c3)cc2)c1 |  |  |  |  |  |  | inactive | inactive | inactive
O=C(/C=C/c1ccc([N+](=O)[O-])cc1)c1ccc(C(=O)/C=C/c2ccc([N+](=O)[O-])cc2)cc1 | 50 (≈ 117 µM) | 25 | 10 | 13 | 50 (≈ 117 µM) | 200 (≈ 467 µM) |  |  | 
C[C@@H]1[C@H](O)[C@@H](C)/C=C/C=C/C=C/C=C/C=C/C=C/C=C/[C@H](O[C@@H]2O[C@H](C)[C@@H](O)[C@H](N)[C@@H]2O)C[C@@H]2O[C@](O)(C[C@@H](O)C[C@@H](O)[C@H](O)CC[C@@H](O)C[C@@H](O)CC(=O)O[C@H]1C)C[C@H](O)[C@H]2C(=O)O [AMPHOTERICIN B] |  | 21 |  |  |  |  |  |  | 
O=C(/C=C/c1ccccc1)c1ccc(C(=O)/C=C/c2ccccc2)cc1 | 200 (≈ 591 µM) | 17 | 10 | 13 | 200 (≈ 591 µM) | 200 (≈ 591 µM) |  |  | 
O=C(/C=C/c1ccc(Cl)cc1)c1ccc(C(=O)/C=C/c2ccc(Cl)cc2)cc1 | 200 (≈ 491 µM) | 12 | 10 | 23 | 100 (≈ 246 µM) | 200 (≈ 491 µM) |  |  | 
O=C(/C=C/c1ccc(Br)cc1)c1ccc(C(=O)/C=C/c2ccc(Br)cc2)cc1 |  |  | 9 | 30 | 50 (≈ 101 µM) | 200 (≈ 403 µM) |  |  | inactive
COc1ccc(/C=C/C(=O)c2ccc(C(=O)/C=C/c3ccc(OC)c(OC)c3)cc2)cc1OC |  |  | 11 | 30 | 100 (≈ 218 µM) | 200 (≈ 436 µM) |  |  | inactive
O=C(/C=C/c1ccccc1Cl)c1ccc(C(=O)/C=C/c2ccccc2Cl)cc1 | 200 (≈ 491 µM) | 12 | 10 | 27 | 100 (≈ 246 µM) | 100 (≈ 246 µM) |  |  | 

Reference: ChEMBL document CHEMBL3045415, “Synthesis, characterization and antimicrobial activities of some novel bis-chalcones” (2012)
